The results in this text go back to patent US9682953B2, “Amide compounds, compositions and applications thereof” (Advinus Therapeutics Limited, priority 2011, dated 2017).

Read-outs that look alike come from different tables or passages of the source.

Experiment [1] has as its target human Fatty Acid Amide Hydrolase (FAAH) (Homo sapiens (Human), UniProt O00519). Put plainly: biochemical. The conditions noted are these: for inhibition at 0.1 µM: read-out: hFAAH % inhibition at 100 nM, 100 nM (tier I).
Experiment [2] deals with rat Fatty Acid Amide Hydrolase (FAAH) (Rattus norvegicus (Rat), UniProt P97612). The experiment is described as follows: FAAH in vitro fluorescence assay (AAMCA hydrolysis), rat enzyme. The experiment is classed as biochemical. The conditions noted are these: for inhibition at 0.1 µM: read-out: rFAAH % inhibition at 100 nM; for inhibition at 0.1 µM / rFAAH % inhibition at 100 nM: 100 nM (tier I). The procedure: Material and Reagents: All reagents were purchased from Sigma-Aldrich unless specified. […] Chaperone protein groEL-groES in pGRO7 plasmid (Takara Bio Inc, Japan) was co-expressed with Fatty Acid Amide Hydrolase (FAAH) to improve solubility of the protein expressed in E coli. […] Briefly, the bacterial cultures in Luria Broth (2 L) were induced with arabinose (2 mM) and Isopropyl (β-D-1-thiogalactopyranoside, IPTG (1 mM), for 20 h at room temperature. The cultures were centrifuged at 1200×g for 10 min and the cell pellet was resuspended in 100 mL buffer containing of 20 mM NaPi (pH 7.4), 100 mM NaCl, Benzonase (500u), Aprotinin (1 μg/mL) and Leupeptin (1 μg/mL). Cells were lyzed by sonication (Amp 20%, Pulse 15 s×15, on ice) and the cell debris removed by centrifugation at 5000×g for 20 min. The supernatant was enriched via ultracentrifugation at 100,000×g for 1 h and the cell pellet was resuspended in 16 mL buffer containing 20 mM NaPi (pH 7.8), 500 mM NaCl, 1% Triton X-100. The resuspended cell extract was subjected to ultra-centrifugation at 100,000×g for 1 h and the enriched supernatant was used in the in vitro assay. All protein extraction steps were carried out on ice or at 4° C.
The assay was carried out in 200 μL volume in a 96-well black polystyrene plate (Greiner Bio-one, Germany). Each reaction consisted of human Fatty Acid Amide Hydrolase (FAAH) protein and 10 μM AAMCA in assay buffer containing 50 mM HEPES, 1 mM EDTA and 0.1% BSA, pH 7.4. The reaction was incubated with 2 μL of varying concentrations of inhibitor in DMSO (final concentration of DMSO 1%) with shaking for 1 min and monitored for increase in fluorescence in kinetic mode for 50 min. […] Rate of reaction as a function of the concentration of the inhibitor was used to determine the IC50 of the inhibitors. Data was analyzed using GraphPad Prism 5 (GraphPad Software Inc., San Diego, Calif.). The activity of the compounds for rat Fatty Acid Amide Hydrolase (FAAH) was evaluated as described above with rat Fatty Acid Amide Hydrolase (FAAH) protein and 10 μM AAMCA substrate.

The mark [3] stands for this setting: human FAAH, read-out: hFAAH IC50.

Sequence of human Fatty Acid Amide Hydrolase (FAAH) (O00519 30-579): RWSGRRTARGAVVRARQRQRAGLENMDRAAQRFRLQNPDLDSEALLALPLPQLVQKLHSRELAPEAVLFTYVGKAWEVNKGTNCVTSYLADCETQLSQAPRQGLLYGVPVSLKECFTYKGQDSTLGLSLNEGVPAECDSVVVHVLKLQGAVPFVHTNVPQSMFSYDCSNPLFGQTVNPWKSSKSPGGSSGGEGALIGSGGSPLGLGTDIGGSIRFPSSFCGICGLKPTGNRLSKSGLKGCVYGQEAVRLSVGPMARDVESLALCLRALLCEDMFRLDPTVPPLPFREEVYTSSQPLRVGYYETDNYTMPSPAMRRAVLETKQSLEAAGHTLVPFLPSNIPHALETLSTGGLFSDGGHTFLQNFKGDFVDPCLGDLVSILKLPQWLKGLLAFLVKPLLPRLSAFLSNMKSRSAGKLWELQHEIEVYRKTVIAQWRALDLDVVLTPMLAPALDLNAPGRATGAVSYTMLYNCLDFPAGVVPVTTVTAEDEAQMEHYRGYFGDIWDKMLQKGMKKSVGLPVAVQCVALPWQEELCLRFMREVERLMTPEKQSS
Sequence of rat Fatty Acid Amide Hydrolase (FAAH) (P97612 30-579): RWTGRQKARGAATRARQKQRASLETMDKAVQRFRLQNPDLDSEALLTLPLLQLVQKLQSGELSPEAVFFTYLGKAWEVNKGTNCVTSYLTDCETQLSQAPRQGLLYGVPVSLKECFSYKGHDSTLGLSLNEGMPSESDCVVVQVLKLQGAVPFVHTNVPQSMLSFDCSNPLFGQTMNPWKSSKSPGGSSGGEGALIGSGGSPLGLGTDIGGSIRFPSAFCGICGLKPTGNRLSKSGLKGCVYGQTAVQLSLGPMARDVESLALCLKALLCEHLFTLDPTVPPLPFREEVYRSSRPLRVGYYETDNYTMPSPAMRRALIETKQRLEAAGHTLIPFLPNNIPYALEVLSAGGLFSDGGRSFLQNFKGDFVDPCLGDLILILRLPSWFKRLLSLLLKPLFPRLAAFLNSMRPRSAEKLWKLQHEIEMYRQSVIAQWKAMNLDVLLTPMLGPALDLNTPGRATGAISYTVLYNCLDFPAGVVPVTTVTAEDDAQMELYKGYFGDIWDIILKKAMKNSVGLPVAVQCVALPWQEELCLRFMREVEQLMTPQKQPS

On to `O=C(NC1CCC(=Cc2cccc(Oc3ccc(C(F)(F)F)cn3)c2)CC1)c1cncnc1` (stereo not shown) [Example 2.A-12, N-[4-[[3-[[5-(Trifluoromethyl)-2-pyridyl]oxy]phenyl]methylene]cyclohexyl]pyrimidine-5-carboxamide], for which the half-inhibitory concentration (IC50) in experiment [1] (read-out: hFAAH IC50) was 3 nM; in experiment [2] (rat FAAH, read-out: rFAAH IC50) it was 100 nM.
On to `O=C(NC1CCC(=Cc2cccc(Oc3ccc(C(F)(F)F)cn3)c2)CC1)c1ccc(F)nc1` (stereo not shown) [Example 2.A-14, 6-Fluoro-N-[4-[[3-[[5-(trifluoromethyl)-2-pyridyl]oxy]phenyl]methylene]cyclohexyl]pyridine-3-carboxamide], for which, in experiment [1] (read-out: hFAAH IC50), the half-inhibitory concentration (IC50) amounted to 10 nM. For the same compound, the inhibition at 0.1 µM in experiment [2] (rat FAAH) was determined as 25%.
Turning to `O=C(NC1CCC(=Cc2cccc(Oc3ccc(C(F)(F)F)cn3)c2)CC1)c1cncc(F)c1` (stereo not shown) [Example 2.A-15, 5-Fluoro-N-[4-[[3-[[5-(trifluoromethyl)-2-pyridyl]oxy]phenyl]methylene]cyclohexyl]pyridine-3-carboxamide], the IC50 in experiment [1] (hFAAH IC50) stood at 5 nM; in experiment [2], 188 nM.
With `O=C(NC1CCC(=Cc2cccc(Oc3ccc(C(F)(F)F)cn3)c2)CC1)c1ncccn1` (stereo not shown) [Example 2.A-16, N-[4-[[3-[[5-(Trifluoromethyl)-2-pyridyl]oxy]phenyl]methylene]cyclohexyl]pyrimidine-2-carboxamide], the concentration for half-maximal inhibition (IC50) in experiment [1] (setting [3]) was determined as 15 nM. Further, the inhibition at 0.1 µM in experiment [2] (rat FAAH) was 38%.
Taken in the same sequence, the figures for `O=C(NC1CCC(=Cc2cccc(Oc3ccc(C(F)(F)F)cn3)c2)CC1)c1ccnnc1` (stereo not shown) [Example 2.A-17, N-[4-[[3-[[5-(Trifluoromethyl)-2-pyridyl]oxy]phenyl]methylene]cyclohexyl]pyridazine-4-carboxamide] were 10 nM and 14%.
Regarding `Cn1cc(C(=O)NC2CCC(=Cc3cccc(Oc4ccc(C(F)(F)F)cn4)c3)CC2)cn1` (stereo not shown) [Example 2.A-18, 1-Methyl-N-[4-[[3-[[5-(trifluoromethyl)-2-pyridyl]oxy]phenyl]methylene]cyclohexyl]pyrazole-4-carboxamide], the inhibition at 0.1 µM in experiment [1] (human FAAH) amounted to 45%; in experiment [2] (rat FAAH), 38%.
As to `O=C(NC1CCC(=Cc2cccc(Oc3ccc(C(F)(F)F)cn3)c2)CC1)c1cn[nH]n1` (stereo not shown) [Example 2.A-19, N-[4-[[3-[[5-(Trifluoromethyl)-2-pyridyl]oxy]phenyl]methylene]cyclohexyl]-2H-triazole-4-carboxamide], the IC50 in experiment [1] (setting [3]) was determined as 6 nM; in experiment [2] (rat FAAH, read-out: rFAAH IC50), 145 nM.
With `Cc1nnc(C(=O)NC2CCC(=Cc3cccc(Oc4ccc(C(F)(F)F)cn4)c3)CC2)o1` (stereo not shown) [Example 2.A-20, 5-Methyl-N-[4-[[3-[[5-(trifluoromethyl)-2-pyridyl]oxy]phenyl]methylene]cyclohexyl]-1,3,4-oxadiazole-2-carboxamide], the 50% inhibitory concentration (IC50) in experiment [1] (setting [3]) stood at 334 nM. In experiment [2] (rat FAAH), the “rFAAH % inhibition at 100 nM” value was “No inhibition at 100 nM”.
Regarding `O=C(NC1CCC(=Cc2cccc(Oc3ccc(C(F)(F)F)cn3)c2)CC1)c1ccc(Cl)nc1` (stereo not shown) [Example 2.A-22, 6-Chloro-N-[4-[[3-[[5-(trifluoromethyl)-2-pyridyl]oxy]phenyl]methylene]cyclohexyl]pyridine-3-carboxamide], the IC50 in experiment [1] (setting [3]) is 5 nM; in experiment [2] (rat FAAH, read-out: rFAAH IC50) it was 81 nM.
The matching figures for `Cc1[nH]ncc1C(=O)NC1CCC(=Cc2cccc(Oc3ccc(C(F)(F)F)cn3)c2)CC1` (stereo not shown) [Example 2.A-23, 5-Methyl-N-[4-[[3-[[5-(trifluoromethyl)-2-pyridyl]oxy]phenyl]methylene]cyclohexyl]-1H-pyrazole-4-carboxamide]: 5 nM and 29 nM.
Take `CN(C)c1ccc(C(=O)NC2CCC(=Cc3cccc(Oc4ccc(C(F)(F)F)cn4)c3)CC2)cn1` (stereo not shown) [Example 2.A-24, 6-(Dimethylamino)-N-[4-[[3-[[5-(trifluoromethyl)-2-pyridyl]oxy]phenyl]methylene]cyclohexyl]pyridine-3-carboxamide]: the IC50 in experiment [1] (read-out: hFAAH IC50) was determined as 9 nM. Further, the inhibition at 0.1 µM in experiment [2] (rat FAAH) came out at 31%.
With `O=C(NC1CCC(=Cc2cccc(Oc3ccc(C(F)(F)F)cn3)c2)CC1)c1cccnc1Cl` (stereo not shown) [Example 2.A-25, 2-Chloro-N-[4-[[3-[[5-(trifluoromethyl)-2-pyridyl]oxy]phenyl]methylene]cyclohexyl]pyridine-3-carboxamide], the concentration for half-maximal inhibition (IC50) in experiment [1] (read-out: hFAAH IC50) amounted to 16 nM. Also, in experiment [2] (rat FAAH), the “rFAAH % inhibition at 100 nM” value is on record as “No inh at 100 nM”.
For `O=C(NC1CCC(=Cc2cccc(Oc3ccc(C(F)(F)F)cn3)c2)CC1)c1cccnc1F` (stereo not shown) [Example 2.A-26, 2-Fluoro-N-[4-[[3-[[5-(trifluoromethyl)-2-pyridyl]oxy]phenyl]methylene]cyclohexyl]pyridine-3-carboxamide], the half-maximal inhibitory concentration (IC50) in experiment [1] (read-out: hFAAH IC50) amounted to 5 nM; in experiment [2] (rat FAAH, read-out: rFAAH IC50), 84 nM.
With `N#Cc1ccc(C(=O)NC2CCC(=Cc3cccc(Oc4ccc(C(F)(F)F)cn4)c3)CC2)cn1` (stereo not shown) [Example 2.A-27, 6-Cyano-N-[4-[[3-[[5-(trifluoromethyl)-2-pyridyl]oxy]phenyl]methylene]cyclohexyl]pyridine-3-carboxamide], the IC50 in experiment [1] (setting [3]) worked out at 55 nM. The inhibition at 0.1 µM in experiment [2] (rat FAAH) came out at 27%.
Turning to `Cc1ncccc1C(=O)NC1CCC(=Cc2cccc(Oc3ccc(C(F)(F)F)cn3)c2)CC1` (stereo not shown) [Example 2.A-28, 2-Methyl-N-[4-[[3-[[5-(trifluoromethyl)-2-pyridyl]oxy]phenyl]methylene]cyclohexyl]pyridine-3-carboxamide], the concentration for half-maximal inhibition (IC50) in experiment [1] (setting [3]) was 31 nM. The “rFAAH % inhibition at 100 nM” value in experiment [2] (rat FAAH) is recorded as “No inhibition at 100 nM”.
For `O=C(NC1CCC(=Cc2cccc(Oc3ccc(C(F)(F)F)cn3)c2)CC1)c1c[nH]nc1C(F)(F)F` (stereo not shown) [Example 2.A-29, 3-(Trifluoromethyl)-N-[4-[[3-[[5-(trifluoromethyl)-2-pyridyl]oxy]phenyl]methylene]cyclohexyl]-1H-pyrazole-4-carboxamide], the concentration for half-maximal inhibition (IC50) in experiment [1] (read-out: hFAAH IC50) is 3 nM; in experiment [2] (rat FAAH, read-out: rFAAH IC50), 24 nM.
The matching figures for `Cc1cncc(C(=O)NC2CCC(=Cc3cccc(Oc4ccc(C(F)(F)F)cn4)c3)CC2)c1` (stereo not shown) [Example 2.A-30, 5-Methyl-N-[4-[[3-[[5-(trifluoromethyl)-2-pyridyl]oxy]phenyl]methylene]cyclohexyl]pyridine-3-carboxamide]: 5 nM and 14 nM.
In the case of `O=C(NC1CCC(=Cc2cccc(Oc3ccc(C(F)(F)F)cn3)c2)CC1)c1cncc(Cl)c1` (stereo not shown) [Example 2.A-32, 5-Chloro-N-[4-[[3-[[5-(trifluoromethyl)-2-pyridyl]oxy]phenyl]methylene]cyclohexyl]pyridine-3-carboxamide], the IC50 in experiment [1] (setting [3]) came out at 6 nM. The inhibition at 0.1 µM in experiment [2] (rat FAAH) amounted to 40%.
In the case of `O=C(NC1CCC(=Cc2cccc(Oc3ccc(C(F)(F)F)cn3)c2)CC1)c1ccccc1` (stereo not shown) [Example 2.A-34, N-[4-[[3-[[5-(Trifluoromethyl)-2-pyridyl]oxy]phenyl]methylene]cyclohexyl]benzamide], the IC50 in experiment [1] (setting [3]) came out at 18 nM. The inhibition at 1 µM in experiment [2] (read-out: rFAAH % inhibition at 1 μM, rat FAAH, 1 μM) is 50%.
With `Cc1n[nH]c(C)c1C(=O)NC1CCC(=Cc2cccc(Oc3ccc(C(F)(F)F)cn3)c2)CC1` (stereo not shown) [Example 2.A-35, 3,5-Dimethyl-N-[4-[[3-[[5-(trifluoromethyl)-2-pyridyl]oxy]phenyl]methylene]cyclohexyl]-1H-pyrazole-4-carboxamide], the IC50 in experiment [1] (read-out: hFAAH IC50) is 29 nM. Also, in experiment [2] (rat FAAH), the inhibition at 0.1 µM is 38%.
Consider `Cc1ccc(C(=O)NC2CCC(=Cc3cccc(Oc4ccc(C(F)(F)F)cn4)c3)CC2)c(C)n1` (stereo not shown) [Example 2.A-37, 2,6-Dimethyl-N-[4-[[3-[[5-(trifluoromethyl)-2-pyridyl]oxy]phenyl]methylene]cyclohexyl]pyridine-3-carboxamide], for which the IC50 in experiment [1] (setting [3]) came out at 57 nM. Further, the “rFAAH % inhibition at 100 nM” value in experiment [2] (rat FAAH) is on record as “No inhibition at 100 nM”.
Regarding `Cc1n[nH]c(C(C)C)c1C(=O)NC1CCC(=Cc2cccc(Oc3ccc(C(F)(F)F)cn3)c2)CC1` (stereo not shown) [Example 2.A-38, 5-Isopropyl-3-methyl-N-[4-[[3-[[5-(trifluoromethyl)-2-pyridyl]oxy]phenyl]methylene]cyclohexyl]-1H-pyrazole-4-carboxamide], the inhibition at 0.1 µM amounted to 20% in experiment [1] (human FAAH) and 54% in experiment [2] (rat FAAH).
Turning to `CC(C)c1[nH]ncc1C(=O)NC1CCC(=Cc2cccc(Oc3ccc(C(F)(F)F)cn3)c2)CC1` (stereo not shown) [Example 2.A-39, 5-Isopropyl-N-[4-[[3-[[5-(trifluoromethyl)-2-pyridyl]oxy]phenyl]methylene]cyclohexyl]-1H-pyrazole-4-carboxamide], the IC50 stood at 63 nM in experiment [1] (setting [3]) and 30 nM in experiment [2] (rat FAAH, read-out: rFAAH IC50).
